Results on four substances are retold here after patent publication US11787854B2, “Immunological targeting of pathological tau proteins” (New York University, priority 2009, dated 2023).

In experiment [1] the test system is JNPL3 P301L tangle mice. The settings on record: mouse, in vivo.
In experiment [2] the test system is homozygous JNPL3 tau P301L mice. In words: Traverse beam test, actively immunized JNPL3 P301L mice. The class given is in vivo, mouse. The settings on record: at 8 months of age, vs adjuvant alone. The method, then: (§1) JNPL3 P301L mice received a subcutaneous injection of 100 μl followed by a second injection 2 weeks later and then monthly thereafter (unless otherwise indicated). Vaccination started at 2-3 months of age and continued until the animals were 8-9 months of age at which time the animals were perfused and their organs collected for analysis. The mice went through a battery of sensorimotor tests at 5-6 months and again at 8-9 months of age prior to sacrifice. Control mice received the adjuvant alone.
Traverse Beam: This task tests balance and general motor coordination and function integration. Mice were assessed by measuring their ability to traverse a graded narrow wooden beam to reach a goal box (Torres et al., “Behavioural, Histochemical and Biochemical Consequences of Selective Immunolesions in Discrete Regions of the Basal Forebrain Cholinergic System,” Neuroscience 63:95-122 (1994), which is hereby incorporated by reference in its entirety). The mice were placed on a 1.1 cm wide beam that is 50.8 cm long and suspended 30 cm above a padded surface by two identical columns. […] Mice were placed on the beam in a perpendicular orientation to habituate and were then monitored for a maximum of 60 sec. The number of foot slips each mouse had before falling or reaching the goal box were recorded for each of four successive trials. Errors are defined as footslips and were recorded numerically.

The test system of experiment [3] is pathological tau. Put plainly: PHF1 immunostaining of pathological tau in brain of actively immunized JNPL3 P301L mice. It is filed as in vivo, mouse. The note with it: compared to control mice receiving adjuvant only. The method, then: JNPL3 P301L mice received a subcutaneous injection of 100 μl followed by a second injection 2 weeks later and then monthly thereafter (unless otherwise indicated). Vaccination started at 2-3 months of age and continued until the animals were 8-9 months of age at which time the animals were perfused and their organs collected for analysis. The mice went through a battery of sensorimotor tests at 5-6 months and again at 8-9 months of age prior to sacrifice. Control mice received the adjuvant alone. […]
Analysis of tissue sections was quantified with a Bioquant image analysis system. […] For quantitative image analysis of immunohistochemistry, the granular layer of the dentate gyrus was initially selected which consistently contained intraneuronal tau aggregates (pretangles and tangles). […] Four to five sections were analyzed per animal.

Experiment [4] relates to homozygous JNPL3 tau P301L mice. In words: Rotarod test, actively immunized JNPL3 P301L mice. The class given is in vivo, mouse. The settings on record: at 5-6 months of age and at 8-9 months of age, vs adjuvant alone. The method, then:
as §1
Rotarod Test: Animals were placed onto the rod (diameter 3.6 cm) apparatus to assess differences in motor coordination and balance by measuring fore- and hindlimb motor coordination and balance (Rotarod 7650 accelerating model; Ugo Basile, Biological Research Apparatus, Varese, Italy). This procedure was designed to assess motor behavior without a practice confound. The animals were habituated to the apparatus by receiving training sessions of two trials, sufficient to reach a baseline level of performance. Then, the mice were tested three additional times, with increasing speed. During habituation, the rotarod was set at 1.0 rpm, which was gradually raised every 30 sec, and was also wiped clean with 30% ethanol solution after each session. A soft foam cushion was placed beneath the apparatus to prevent potential injury from falling. […]
On the technique in general: The rotarod test checks motor coordination on a turning rod.

On to SRT*PS*LP [Tau210-216[P-Thr212-Ser214]], for which the “antibody response against the immunogen” value in experiment [1] is “robust IgG and IgM immune response”.
As to IGS*TE [Tau260-264[P-Ser262]], in experiment [1], the “antibody response against the immunogen” value is recorded as “robust IgG response against the immunogen” and the “antibody response against the tau epitope” value was “a good portion of the antibody response is also generated against the tau epitope”. In experiment [2], the “functional impairment, traverse beam (footslips)” value is “prevented functional impairment”. Further, in experiment [3], the “pathological tau (PHF1 immunostaining) in the brain stem” value is recorded as “reduced the levels of pathological tau” and the “pathological tau (PHF1 immunostaining) in the dentate gyrus” value is listed as “reduced the levels of pathological tau”. Besides, the “functional impairment, rotarod test” value in experiment [4] is on record as “prevented functional impairment”.
Take “VRT*PPKS*PS [Tau229-237[P-Thr231-Ser235]]”: the “antibody response against the immunogen” value in experiment [1] is “robust antibody (IgG) response”.
Consider “RENAKAKTDHGAEIVYKXPVVSGDTXPRHL [Tau379-408[Asp396, 404]]”, for which, in experiment [1], the “antibody response against the immunogen” value is “robust antibody (IgG) response”.
